Data on 15 compounds can be found in patent US20250215029A1 (Recludix Pharma, Inc., priority 2022, published 2025).

Bounds are passed on as bounds.

The target in experiment [1] is T1, Recombinant STAT3 protein (STAT3 (G127-I722)) (Homo sapiens, UniProt P40763).
T1 construct: Recombinant STAT3 protein (STAT3 (G127-I722))
Put plainly: STAT3 Fluorescence Polarization (FP) Assay. The format is binding. Conditions: STAT3 (G127-I722) 25 nM, probe 5-FAM-GpYLPQTV-NH2 2 nM, 45-minute incubation; read-out: STAT3 (FP assay IC50 class). The procedure, abridged: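 In this competition FP format, STAT3 residues G127-I722 (25 nM) and 2 nM 5-FAM-GpYLPQTV-NH2 met test compounds for 45 min at room temperature. IC50 values result from fitting mP signal against log concentration by nonlinear regression.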
(In general: Polarisation of emitted light reports the rotation of a fluorescent probe.)

In experiment [2] the target is T2, Recombinant STAT6 protein (STAT6 (W123-T658)) (Homo sapiens, UniProt P42226).
T2 construct: Recombinant STAT6 protein (STAT6 (W123-T658))
T2 sequence (P42226 123-658): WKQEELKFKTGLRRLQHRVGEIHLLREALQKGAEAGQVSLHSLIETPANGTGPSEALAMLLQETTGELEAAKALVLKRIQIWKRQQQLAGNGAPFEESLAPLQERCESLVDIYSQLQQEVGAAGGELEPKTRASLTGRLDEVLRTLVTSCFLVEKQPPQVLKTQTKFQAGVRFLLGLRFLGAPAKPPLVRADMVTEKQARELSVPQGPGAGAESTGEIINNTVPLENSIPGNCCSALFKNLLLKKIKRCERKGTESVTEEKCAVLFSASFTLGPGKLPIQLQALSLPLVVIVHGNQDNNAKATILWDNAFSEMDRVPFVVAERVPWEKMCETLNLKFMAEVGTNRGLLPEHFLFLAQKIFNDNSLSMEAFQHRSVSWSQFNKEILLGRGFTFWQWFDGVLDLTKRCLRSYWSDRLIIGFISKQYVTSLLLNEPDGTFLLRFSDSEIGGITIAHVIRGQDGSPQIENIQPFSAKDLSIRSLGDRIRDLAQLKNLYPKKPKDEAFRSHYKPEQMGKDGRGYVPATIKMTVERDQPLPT
Put plainly: STAT6 Fluorescence Polarization (FP) Assay. It is filed as binding. The conditions noted are these: STAT6 (W123-T658) 250 nM, probe 5-FAM-Ap[…]-NH2 2 nM, 45-minute incubation; read-out: STAT6 (FP assay IC50 class). The procedure, abridged:
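Displacement of a fluorescent phosphotyrosine peptide (2 nM) from 250 nM STAT6 (W123-T658) is measured by polarization after a 45-minute room-temperature incubation. Compounds are titrated serially at 1% DMSO, and IC50 values derive from regression of mP on log concentration.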

T1 sequence (P40763 127-722): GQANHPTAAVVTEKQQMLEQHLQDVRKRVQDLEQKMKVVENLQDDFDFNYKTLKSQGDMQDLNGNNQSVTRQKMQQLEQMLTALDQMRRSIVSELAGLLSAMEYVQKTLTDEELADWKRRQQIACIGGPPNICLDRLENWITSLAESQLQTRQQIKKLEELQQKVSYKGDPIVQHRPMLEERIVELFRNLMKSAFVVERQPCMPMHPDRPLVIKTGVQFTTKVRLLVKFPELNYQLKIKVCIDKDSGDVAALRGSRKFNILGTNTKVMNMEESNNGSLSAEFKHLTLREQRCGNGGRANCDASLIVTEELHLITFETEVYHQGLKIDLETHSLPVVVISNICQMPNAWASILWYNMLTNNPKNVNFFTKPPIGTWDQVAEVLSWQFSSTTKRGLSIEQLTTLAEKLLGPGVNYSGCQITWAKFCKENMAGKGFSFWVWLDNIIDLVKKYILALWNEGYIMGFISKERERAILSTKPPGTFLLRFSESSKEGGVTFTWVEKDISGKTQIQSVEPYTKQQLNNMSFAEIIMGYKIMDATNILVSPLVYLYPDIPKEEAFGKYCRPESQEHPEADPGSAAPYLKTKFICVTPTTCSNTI

In the case of `Cn1ccc([C@@H]2CN(C(=O)[C@@H]3CC[C@@H]4CCC[C@H](NC(=O)c5cc6cc([C@@H](F)P(=O)(O)O)ccc6s5)C(=O)N43)C3(CC3)C2)cc1=O` [Compound 831, ((S)-fluoro(2-(((3S,6S,9aS)-3-((R)-6-(1-methyl-2-oxo-1,2-dihydropyridin-4-yl)-4-azaspiro[2.4]heptane-4-carbonyl)-5-oxooctahydro-1H-pyrrolo[1,2-a]azepin-6-yl)carbamoyl)benzo [b]thiophen-5-yl)methyl) phosphonic acid], the figures for the IC50 in experiment [1] and in experiment [2] were 1000 to 10000 nM and 300 to 3000 nM, respectively.
As for `C[C@H]1C[C@H]2CC[C@@H](C(=O)N3C[C@@H](c4cccnc4)CC34CC4)N2C(=O)[C@@H](NC(=O)c2cc3cc([C@H](F)P(=O)(O)O)ccc3s2)C1` [Compound 834, ((R)-fluoro(2-(((3S,6S,8R,9aR)-8-methyl-5-oxo-3-((R)-6-(pyridin-3-yl)-4-azaspiro[2.4]heptane-4-carbonyl)octahydro-1H-pyrrolo[1,2-a]azepin-6-yl)carbamoyl)benzo [b]thiophen-5-yl)methyl) phosphonic acid], the IC50 (commonly the concentration needed to halve the response being measured) in experiment [1] was 100 to 1000 nM; in experiment [2] it was at most 300 nM.
Turning to `C[C@H]1C[C@H]2CC[C@@H](C(=O)N3C[C@H](c4ccccc4)[C@@H](C#N)C34CC4)N2C(=O)[C@@H](NC(=O)c2cc3cc([C@H](F)P(=O)(O)O)ccc3s2)C1` [Compound 849, ((R)-(2-(((3S,6S,8R,9aR)-3-((6S,7R)-7-cyano-6-phenyl-4-azaspiro[2.4]heptane-4-carbonyl)-8-methyl-5-oxooctahydro-1H-pyrrolo[1,2-a]azepin-6-yl)carbamoyl)benzo [b]thiophen-5-yl)fluoromethyl) phosphonic acid], the half-inhibitory concentration (IC50) is 1000 to 10000 nM in experiment [1] and at most 300 nM in experiment [2].
The matching figures for `O=C(N[C@H]1CCC[C@H]2CC[C@@H](C(=O)N3CC(c4cnccc4N4CCCC4=O)C3)N2C1=O)c1cc2cc(CP(=O)(O)O)ccc2s1` [Compound 850, ((2-(((3S,6S,9aS)-5-oxo-3-(3-(4-(2-oxopyrrolidin-1-yl)pyridin-3-yl)azetidine-1-carbonyl)octahydro-1H-pyrrolo[1,2-a]azepin-6-yl)carbamoyl)benzo [b]thiophen-5-yl)methyl) phosphonic acid]: 1000 to 10000 nM and 3000 to 30000 nM.
As for `CN1CCN(c2ccncc2C2CN(C(=O)[C@@H]3CC[C@@H]4CCC[C@H](NC(=O)c5cc6cc([C@@H](F)P(=O)(O)O)ccc6s5)C(=O)N43)C2)C1=O` [Compound 851, ((S)-fluoro(2-(((3S,6S,9aS)-3-(3-(4-(3-methyl-2-oxoimidazolidin-1-yl)pyridin-3-yl)azetidine-1-carbonyl)-5-oxooctahydro-1H-pyrrolo[1,2-a]azepin-6-yl)carbamoyl)benzo [b]thiophen-5-yl)methyl) phosphonic acid], the figures for the IC50 in experiment [1] and in experiment [2] were 100 to 1000 nM and 3000 to 30000 nM, respectively.
Regarding `O=C(N[C@H]1CCC[C@H]2CC[C@@H](C(=O)N3CC(c4cnccc4N4CC(OC(F)F)C4)C3)N2C1=O)c1cc2cc([C@@H](F)P(=O)(O)O)ccc2s1` [Compound 852, ((S)-(2-(((3S,6S,9aS)-3-(3-(4-(3-(difluoromethoxy)azetidin-1-yl)pyridin-3-yl)azetidine-1-carbonyl)-5-oxooctahydro-1H-pyrrolo[1,2-a]azepin-6-yl)carbamoyl)benzo [b]thiophen-5-yl)fluoromethyl) phosphonic acid], the IC50 in experiment [1] was under 100 nM; in experiment [2], 300 to 3000 nM.
On to `O=C(N[C@H]1CCC[C@H]2CC[C@@H](C(=O)N3CC(c4cnccc4-n4ccnc4)C3)N2C1=O)c1cc2cc([C@@H](F)P(=O)(O)O)ccc2s1` [Compound 853, ((S)-(2-(((3S,6S,9aS)-3-(3-(4-(1H-imidazol-1-yl)pyridin-3-yl)azetidine-1-carbonyl)-5-oxooctahydro-1H-pyrrolo[1,2-a]azepin-6-yl)carbamoyl)benzo [b]thiophen-5-yl)fluoromethyl) phosphonic acid], for which the IC50 was in the range of 1000 to 10000 nM in experiment [1] and 3000 to 30000 nM in experiment [2].
The matching figures for `COCCN(C)c1ccncc1C1CN(C(=O)[C@@H]2CC[C@@H]3CCC[C@H](NC(=O)c4cc5cc([C@@H](F)P(=O)(O)O)ccc5s4)C(=O)N32)C1` [Compound 855, ((S)-fluoro(2-(((3S,6S,9aS)-3-(3-(4-((2-methoxyethyl) (methyl)amino)pyridin-3-yl)azetidine-1-carbonyl)-5-oxooctahydro-1H-pyrrolo[1,2-a]azepin-6-yl)carbamoyl)benzo [b]thiophen-5-yl)methyl) phosphonic acid]: under 100 nM and 3000 to 30000 nM.
Take `COCC1CN(c2ccncc2C2CN(C(=O)[C@@H]3CC[C@@H]4CCC[C@H](NC(=O)c5cc6cc([C@@H](F)P(=O)(O)O)ccc6s5)C(=O)N43)C2)C1` [Compound 856, ((S)-fluoro(2-(((3S,6S,9aS)-3-(3-(4-(3-(methoxymethyl)azetidin-1-yl)pyridin-3-yl)azetidine-1-carbonyl)-5-oxooctahydro-1H-pyrrolo[1,2-a]azepin-6-yl)carbamoyl)benzo [b]thiophen-5-yl)methyl) phosphonic acid]: the IC50 in experiment [1] is under 100 nM; in experiment [2], 300 to 3000 nM.
The matching figures for `COC1CN(c2ccncc2C2CN(C(=O)[C@@H]3CC[C@@H]4CCC[C@H](NC(=O)c5cc6cc([C@@H](F)P(=O)(O)O)ccc6s5)C(=O)N43)C2)C1` [Compound 859, ((S)-fluoro(2-(((3S,6S,9aS)-3-(3-(4-(3-methoxyazetidin-1-yl)pyridin-3-yl)azetidine-1-carbonyl)-5-oxooctahydro-1H-pyrrolo[1,2-a]azepin-6-yl)carbamoyl)benzo [b]thiophen-5-yl)methyl) phosphonic acid]: under 100 nM and 300 to 3000 nM.
On to `C[C@@H]1COCCN1c1ccncc1C1CN(C(=O)[C@@H]2CC[C@@H]3CCC[C@H](NC(=O)c4cc5cc(CP(=O)(O)O)ccc5s4)C(=O)N32)C1` [Compound 860, ((2-(((3S,6S,9aS)-3-(3-(4-((R)-3-methylmorpholino)pyridin-3-yl)azetidine-1-carbonyl)-5-oxooctahydro-1H-pyrrolo[1,2-a]azepin-6-yl)carbamoyl)benzo [b]thiophen-5-yl)methyl) phosphonic acid], for which the IC50 in experiment [1] was 100 to 1000 nM; in experiment [2] it was 3000 to 30000 nM.
Take `CN(C)c1ncncc1C1CN(C(=O)[C@@H]2CC[C@@H]3CCC[C@H](NC(=O)c4cc5cc(CP(=O)(O)O)ccc5s4)C(=O)N32)C1` [Compound 863, ((2-(((3S,6S,9aS)-3-(3-(4-(dimethylamino)pyrimidin-5-yl)azetidine-1-carbonyl)-5-oxooctahydro-1H-pyrrolo[1,2-a]azepin-6-yl)carbamoyl)benzo [b]thiophen-5-yl)methyl) phosphonic acid]: the figures for the IC50 in experiment [1] and in experiment [2] were under 100 nM and 3000 to 30000 nM, respectively.
As to `O=C(N[C@H]1CCC[C@H]2CC[C@@H](C(=O)N3CC(c4cccnc4)C3)N2C1=O)c1cc2cc(CP(=O)(O)O)c(F)cc2[nH]1` [Compound 864, ((6-fluoro-2-(((3S,6S,9aS)-5-oxo-3-(3-(pyridin-3-yl)azetidine-1-carbonyl)octahydro-1H-pyrrolo[1,2-a]azepin-6-yl)carbamoyl)-1H-indol-5-yl)methyl) phosphonic acid], the figures for the IC50 in experiment [1] and in experiment [2] were over 10000 nM and 3000 to 30000 nM, respectively.
Taken in the same sequence, the figures for `O=C(N[C@H]1CCCC[C@H]2CC[C@@H](C(=O)N3CCC(c4cc[nH]c(=O)c4)C3)N2C1=O)c1ccc2ccc(C(F)(F)P(=O)(O)O)cc2c1` (stereo partly drawn) [Compound 866, (difluoro(7-(((3S,6S,10aS)-5-oxo-3-(3-(2-oxo-1,2-dihydropyridin-4-yl)pyrrolidine-1-carbonyl)decahydropyrrolo[1,2-a]azocin-6-yl)carbamoyl)naphthalen-2-yl)methyl) phosphonic acid] were 100 to 1000 nM and at most 300 nM.
Taken in the same sequence, the figures for `O=C(N[C@H]1CCC[C@H]2CC[C@@H](C(=O)N3CC(c4cccnc4)C3)N2C1=O)c1cc2cc([C@H](F)P(=O)(O)O)ccc2s1` [Compound 870, ((R)-fluoro(2-(((3S,6S,9aS)-5-oxo-3-(3-(pyridin-3-yl)azetidine-1-carbonyl)octahydro-1H-pyrrolo[1,2-a]azepin-6-yl)carbamoyl)benzo [b]thiophen-5-yl)methyl) phosphonic acid] were under 100 nM and 3000 to 30000 nM.
